Reference: patent US20230053540A1, “TREATMENT OF LIVER INJURY” (Massachusetts Institute of Technology, priority 2019, published 2023)

System: hepatocytes
Test: Seq-Well scRNA-Seq of hepatocytes after APAP overdose (signature scores, DEG vs untreated)
Format: in vivo, mouse
[1] = A24 (24 h post-APAP) vs other clusters, Wilcox

CC(=O)Nc1ccc(O)cc1 [APAP, acetaminophen]
Vcam1 avg_logFC (A6 vs UT): 0.4574 | Vcam1 pct.1 (A6 vs UT): 0.134 | Vkorc1 avg_logFC (A6 vs UT): −0.4042 | Vkorc1 pct.1 (A6 vs UT): 0.296 | Vsig4 avg_logFC (A6 vs UT): 0.4833 | Vsig4 pct.1 (A6 vs UT): 0.117 | Wbp1l avg_logFC (A6 vs UT): 0.5535 | Wdr26 avg_logFC (A6 vs UT): 0.4325 | Wdr26 pct.1 (A6 vs UT): 0.549 | Wfdc17 avg_logFC (A6 vs UT): 0.4867 | Wfdc17 pct.1 (A6 vs UT): 0.177 | Xbp1 avg_logFC (A6 vs UT): 0.6032 | Xrn2 A6logFC (A6 vs UT): 0.2985 | Xrn2 avg_logFC (A6 vs UT): 0.2985 | Xrn2 pct.1 (A6 vs UT): 0.387 | Yap1 A6logFC (A6 vs UT): 0.3281 | Ythdc1 A6logFC (A6 vs UT): 0.2641 | Ythdc1 avg_logFC (A6 vs UT): 0.2641 | Ythdc1 pct.1 (A6 vs UT): 0.301 | Ywhag avg_logFC (A6 vs UT): 0.5824 | Zbtb20 avg_logFC (A6 vs UT): 0.4715 | Zbtb20 pct.1 (A6 vs UT): 0.566 | Zfand5 A6logFC (A6 vs UT): 0.2882 | Zfand5 avg_logFC (A6 vs UT): 0.2882 | Zfand5 pct.1 (A6 vs UT): 0.401 | Zfp106 A6logFC (A6 vs UT): 0.3369 | Zfp106 avg_logFC (A6 vs UT): 0.3369 | Zfp106 pct.1 (A6 vs UT): 0.391 | Zfp259 A6logFC (A6 vs UT): 0.2556 | Zfp259 avg_logFC (A6 vs UT): 0.2556 | Zfp259 pct.1 (A6 vs UT): 0.32 | mmu-mir-6240 avg_logFC (A6 vs UT): 1.101 | mt-Co2 avg_logFC (A6 vs UT): −1.105 | mt-Co3 avg_logFC (A6 vs UT): −0.7059 | mt-Co3 pct.1 (A6 vs UT): 0.346 | mt-Nd1 avg_logFC (A6 vs UT): −0.3883 | mt-Nd4 avg_logFC (A6 vs UT): −0.6388 | n-R5-8s1 avg_logFC (A6 vs UT): 0.7661 | avg_logFC AA474408 [1]: 0.4148 | avg_logFC Abca1 [1]: 0.3831 | avg_logFC Acly [1]: 0.4101 | avg_logFC Acox1 [1]: 0.2743 | avg_logFC Acsl4 [1]: 0.299 | avg_logFC Adh4 [1]: 0.392 | avg_logFC Ak3 [1]: 0.2505 | avg_logFC Aox3 [1]: 0.3489 | avg_logFC Arcn1 [1]: 0.3044 | avg_logFC Atp8b1 [1]: 0.361 | avg_logFC Atp11c [1]: 0.2568 | avg_logFC Atxn1 [1]: 0.325 | avg_logFC Calm1 [1]: 0.3702 | avg_logFC Calu [1]: 0.3005 | avg_logFC Canx [1]: 0.2771 | avg_logFC Cltc [1]: 0.3397 | avg_logFC Cmah [1]: 0.4243 | avg_logFC Copa [1]: 0.3334 | avg_logFC Cps1 [1]: 0.2775 | avg_logFC Ctnnb1 [1]: 0.329 | avg_logFC Cxcl1 [1]: 0.453 | avg_logFC Cyb5r3 [1]: 0.3097 | avg_logFC Ddost [1]: 0.2909 | avg_logFC Dhcr24 [1]: 0.2824 | avg_logFC Dnajb11 [1]: 0.3288 | avg_logFC Dnajc12 [1]: 0.3241 | avg_logFC Echdc1 [1]: 0.2818 | avg_logFC Edem1 [1]: 0.2675 | avg_logFC Efna1 [1]: 0.3161 | avg_logFC Eif4g1 [1]: 0.2763 | avg_logFC Eif4g2 [1]: 0.3515 | avg_logFC Eprs [1]: 0.2513 | avg_logFC Etnk1 [1]: 0.3194 | avg_logFC Fam120a [1]: 0.2583 | avg_logFC Fasn [1]: 0.2699 | avg_logFC Fndc3b [1]: 0.3202 | avg_logFC Fos [1]: 0.3632 | avg_logFC Gjb2 [1]: 0.2998 | avg_logFC Gm5424 [1]: 0.262 | avg_logFC Gm24245 [1]: 0.414 | avg_logFC Grlf1 [1]: 0.2556 | avg_logFC Hnf4a [1]: 0.255 | avg_logFC Hs3st3b1 [1]: 0.3219 | avg_logFC Hsd3b5 [1]: 0.3009 | avg_logFC Hsd17b2 [1]: 0.3231 | avg_logFC Hspa13 [1]: 0.342 | avg_logFC Ibtk [1]: 0.2959 | avg_logFC Il6st [1]: 0.3011 | avg_logFC Il13ra1 [1]: 0.2889 | avg_logFC Insig1 [1]: 0.4125 | avg_logFC Kmo [1]: 0.2687 | avg_logFC Lasp1 [1]: 0.2608 | avg_logFC Lgr4 [1]: 0.2572 | avg_logFC Lman1 [1]: 0.2518 | avg_logFC Lpgat1 [1]: 0.2525 | avg_logFC Lrg1 [1]: 0.3096 | avg_logFC Lrp1 [1]: 0.4837 | avg_logFC Lrrc59 [1]: 0.2688 | avg_logFC Met [1]: 0.2512 | avg_logFC Mlec [1]: 0.3405 | avg_logFC Mtss1 [1]: 0.2522 | avg_logFC Mtus1 [1]: 0.3125 | avg_logFC Mug2 [1]: 0.3166 | avg_logFC Nab1 [1]: 0.2601 | avg_logFC Nars [1]: 0.3127 | avg_logFC Nedd4 [1]: 0.3306 | avg_logFC Nr1d2 [1]: 0.3855 | avg_logFC Nr5a2 [1]: 0.2599 | avg_logFC Nrp1 [1]: 0.33 | avg_logFC Ostc [1]: 0.3082 | avg_logFC Pnpla7 [1]: 0.3966 | avg_logFC Prg4 [1]: 0.4007 | avg_logFC Prkd3 [1]: 0.3041 | avg_logFC Proz [1]: 0.28 | avg_logFC Pten [1]: 0.2663 | avg_logFC Ptprf [1]: 0.2888 | avg_logFC Qsox1 [1]: 0.2818 | avg_logFC Rab1 [1]: 0.3145 | avg_logFC Rdx [1]: 0.276 | avg_logFC Rpn1 [1]: 0.3992 | avg_logFC Rrbp1 [1]: 0.2968 | avg_logFC Sdf2l1 [1]: 0.3078 | avg_logFC Sec31a [1]: 0.2596 | avg_logFC Sec61b [1]: 0.3008 | avg_logFC Sel1l [1]: 0.2833 | avg_logFC Sh3bgrl [1]: 0.2668 | avg_logFC Slc3a1 [1]: 0.3074 | avg_logFC Slc38a10 [1]: 0.2557 | avg_logFC Spcs3 [1]: 0.3907 | avg_logFC Srebf1 [1]: 0.3149 | avg_logFC Srp72 [1]: 0.28 | avg_logFC Srpr [1]: 0.2914 | avg_logFC Ssr1 [1]: 0.3129 | avg_logFC Stard4 [1]: 0.2922 | avg_logFC Stt3b [1]: 0.2648 | avg_logFC Tmed7 [1]: 0.3715 | avg_logFC Tmem30a [1]: 0.3056 | avg_logFC Trip12 [1]: 0.2832 | avg_logFC Txndc5 [1]: 0.2758 | avg_logFC Uggt1 [1]: 0.2805 | avg_logFC Uso1 [1]: 0.3202 | avg_logFC Usp4 [1]: 0.2959 | avg_logFC Usp9x [1]: 0.3387 | avg_logFC Zbtb20 [1]: 0.3135 | Atp11c A24logFC (A24 vs UT): 0.2605 | Brd2 A24logFC (A24 vs UT): 0.2664 | Caprin1 A24logFC (A24 vs UT): 0.2628 | Copz1 A24logFC (A24 vs UT): 0.2577 | Ctsc A24logFC (A24 vs UT): 0.3004 | Ddost A24logFC (A24 vs UT): 0.2504 | Deptor A24logFC (A24 vs UT): 0.2606 | Eif4b A24logFC (A24 vs UT): 0.256 | Fasn A24logFC (A24 vs UT): 0.2914 | Gm20594 A24logFC (A24 vs UT): −0.36 | Lasp1 A24logFC (A24 vs UT): 0.253 | Proz A24logFC (A24 vs UT): 0.2632 | Rnf13 A24logFC (A24 vs UT): 0.2553 | Ubb A24logFC (A24 vs UT): −0.2593 | avg_logFC 1110008F13Rik (A24 vs untreated (UT)): −0.4553 | avg_logFC AA474408 (A24 vs untreated (UT)): 0.4364 | avg_logFC Aadac (A24 vs untreated (UT)): −0.4038 | avg_logFC Abca1 (A24 vs untreated (UT)): 0.4394 | avg_logFC Acaa1b (A24 vs untreated (UT)): −0.8508 | avg_logFC Acot1 (A24 vs untreated (UT)): −0.2862 | avg_logFC Acox1 (A24 vs untreated (UT)): 0.2752 | avg_logFC Acsl1 (A24 vs untreated (UT)): −0.3703 | avg_logFC Acsl4 (A24 vs untreated (UT)): 0.3147 | avg_logFC Actb (A24 vs untreated (UT)): 0.3845 | avg_logFC Adh1 (A24 vs untreated (UT)): −0.342 | avg_logFC Adh4 (A24 vs untreated (UT)): 0.3769 | avg_logFC Ahcy (A24 vs untreated (UT)): −0.563 | avg_logFC Ak3 (A24 vs untreated (UT)): 0.289 | avg_logFC Akr1c6 (A24 vs untreated (UT)): −0.3176 | avg_logFC Alas1 (A24 vs untreated (UT)): −0.4898 | avg_logFC Aldh3a2 (A24 vs untreated (UT)): −0.3008 | avg_logFC Ankrd55 (A24 vs untreated (UT)): −1.874 | avg_logFC Aox3 (A24 vs untreated (UT)): 0.2878 | avg_logFC Apcs (A24 vs untreated (UT)): 0.6067 | avg_logFC Apoa2 (A24 vs untreated (UT)): −0.5455 | avg_logFC Apoa5 (A24 vs untreated (UT)): −0.299 | avg_logFC Apob (A24 vs untreated (UT)): 0.4272 | avg_logFC Apoc1 (A24 vs untreated (UT)): −0.3803 | avg_logFC Apoc3 (A24 vs untreated (UT)): −0.4404 | avg_logFC Apoc4 (A24 vs untreated (UT)): −0.4285 | avg_logFC Apoe (A24 vs untreated (UT)): −0.4213 | avg_logFC Arcn1 (A24 vs untreated (UT)): 0.3278 | avg_logFC Arrdc3 (A24 vs untreated (UT)): 0.5269 | avg_logFC Atp8b1 (A24 vs untreated (UT)): 0.3628 | avg_logFC Atp5h (A24 vs untreated (UT)): −0.5795 | avg_logFC Atxn1 (A24 vs untreated (UT)): 0.3049 | avg_logFC B2m (A24 vs untreated (UT)): −0.418 | avg_logFC BC025446 (A24 vs untreated (UT)): 0.2942 | avg_logFC Bhmt (A24 vs untreated (UT)): −0.5202 | avg_logFC C3 (A24 vs untreated (UT)): 0.4495 | avg_logFC C8a (A24 vs untreated (UT)): 0.3337 | avg_logFC C8b (A24 vs untreated (UT)): 0.3187 | avg_logFC C8g (A24 vs untreated (UT)): −0.482 | avg_logFC Calm1 (A24 vs untreated (UT)): 0.4131 | avg_logFC Calr (A24 vs untreated (UT)): 0.5551 | avg_logFC Calu (A24 vs untreated (UT)): 0.3041 | avg_logFC Canx (A24 vs untreated (UT)): 0.3434 | avg_logFC Cat (A24 vs untreated (UT)): 0.2626 | avg_logFC Cebpb (A24 vs untreated (UT)): −0.4716 | avg_logFC Ces1c (A24 vs untreated (UT)): −0.2783
